Common to all, as to assay type: cell-based
The test system of assay [1] is T47D cells expressing mutant PI3Ka (H1047R). As to the kind of experiment: In vitro cell proliferation, T47D cells (CellTiter-Glo). Particulars: inhibition of proliferation, 72 hours, read-out: Avg T-47D EC50. As to the method: (§1) In Vitro Cell Proliferation: Determination of EC50 Values for Inhibition of Proliferation in T47D Cells Expressing Mutant PI3Ka (H1047R) Mutation and SKBR3 Cells Express WT PI3Ka.
(§2) T47D or SKBR3 cells were trypsinized, resuspended in culture media and seeded onto assay ready plates. T47D culture media consisted of RPMI, 10% FBS and Insulin (0.2 units/mL). SKBR3 culture media consisted of McCoys 5a and 10% FBS. Cells were seeded at a density of 1,500 cells/well and dispensed in 50 μl onto 384 well assay ready plates (Corning, 89089-790). Assay ready plates had previously been stamped with 10-point dilutions of compounds of interest, as well as controls. The Echo655 is used to stamp plates at 40 nL of compound or DMSO. Cells were grown for 72 hours at 37° Celsius and 5% CO2. After 72 hours, cells were equilibrated at room temperature for 15 minutes. 30 μL of CellTiter-Glo reagent is added to the plate, which is then shaken for 30 minutes at temperature at 300-500 rpm. Cells are then read on an Envision plate reader. The percentage of inhibition of proliferation was calculated using the following formula: % Inhibition=100×(LumD−Lumsample)/(LumD−Lumlnh), where D is obtained from cells treated with 0.1% DMSO only; lnh is obtained from cells treated with 10 uM Alpelisib. The effective concentration achieving 50% inhibition of proliferation (EC50) is calculated by fitting the Curve using Xlfit (v5.3.1.3), equation 201: Y=Bottom+(Top−Bottom)/(1+10^((LogEC50−X)*HillSlope)).
(Cellular ATP, detected with luciferase, serves as a proxy for viable cell number.)

In assay [2] the test system is SKBR3 cells express WT PI3Ka. The experiment in a line: In vitro cell proliferation, SKBR3 cells (CellTiter-Glo). Conditions: inhibition of proliferation. The method, then:
as §1, §2

Assay [3] concerns phosphorylation of AKT (pAKT) in T47D cells expressing mutant PI3Ka (H1047R). The experiment in a line: In vitro cell pAKT (Ser473) HTRF, T47D cells. Particulars: cellular pAKT, T47D cells, mutant PI3Ka (H1047R), 6 hours, read-out: Avg T-47D IC50. As to the method: (§3) In Vitro Cell pAKT: Determination of IC50 Values for Inhibition of Phosphorylation of AKT (pAKT) in T47D Cells Expressing Mutant PI3Ka (H1047R) Mutation and SKBR3 Cells Express WT PI3Ka.
(§4) T47D or SKBR3 cells were trypsinized, resuspended in culture media and seeded onto assay ready plates. T47D culture media consisted of RPMI, 10% FBS and Insulin (0.2 units/mL). SKBR3 culture media consisted of McCoy's 5a and 10% FBS. Cells were seeded at a density of 5000 cells/well and dispensed in 12.5 μL onto 384 well assay ready plates (Perkin Elmer, 6008238)). Assay ready plates had previously been stamped with 10-point dilutions of compounds of interest, as well as controls. The Echo655 is used to stamp plates at 12.5 nL of compound or DMSO. Cells were grown for 6 hours at 37° Celsius and 5% CO2. After 6 hours, 4 μL of Lysis buffer reagent was added to the plate, which was then centrifuged for 1 minute at 1000 rpm. Then the plate was incubated at room temperature for 30 minutes. After 30 minutes, 4 μL of antibody mix containing Eu Cryptate, d2 Cryptate, and detection buffer, was added to the plate. The plate was centrifuged for 1 minute at 1000 rpm and then incubated overnight at room temperature. The plate was read on an Envision plate reader using the HTRF protocol. The percentage of inhibition of AKT phosphorylation was calculated using the following formula: % Inhibition=100×(pAKTHC−pAKTSample)/(pAKTHC−pAKTLC)), where pAKTHC is obtained from cells treated with 0.1% DMSO only; PAKTLC is obtained from cells treated with 10 uM Alpelisib. The IC50 (concentration achieving 50% inhibition of pAKT) is calculated by fitting the Curve using XIfit (v5.3.1.3), equation 201: Y=Bottom+(Top−Bottom)/(1+10^((LogIC50−X)*HillSlope)).
A general note: Time-resolved FRET reads energy transfer from a long-lived donor to a nearby acceptor.

For assay [4], the system named is phosphorylation of AKT (pAKT) in SKBR3 cells express WT PI3Ka. As to the kind of experiment: In vitro cell pAKT (Ser473) HTRF, SKBR3 cells. Particulars: cellular pAKT. The method, then:
as §3, §4

The term pEC50 denotes the negative decadic logarithm of the EC50, by convention in mol/L. As usually defined, the pIC50 is the negative decadic logarithm of the IC50, by convention in mol/L.

pEC50, pIC50: −log10 of the molar value. Read-outs that look alike come from different tables or passages of the source. Where only a bound is given, the exact number is not on record here.

For the molecule `Cc1cc(C(C)Nc2ccccc2C(=O)O)c2cc(N3CCN(C)CC3)n(C)c(=O)c2c1` (single isomer, unassigned) [Example 13, 2-((1-(2,7-dimethyl-3-(4-methylpiperazin-1-yl)-1-oxo-1,2-dihydroisoquinolin-5-yl)ethyl)amino)benzoic acid], the pEC50 in assay [1] was 5.70 to 6.30; in assay [2] (72 hours), < 4.82. The pIC50 in assay [3] is 5.70 to 6.30; in assay [4] (6 hours) it was < 4.82.
`Cc1cc(C(C)Nc2ccccc2C(=O)O)c2cc(N3Cc4cccnc4C3)n(C)c(=O)c2c1` (single isomer, unassigned) [Example 18, 2-((1-(3-(5,7-dihydro-6H-pyrrolo[3,4-b]pyridin-6-yl)-2,7-dimethyl-1-oxo-1,2-dihydroisoquinolin-5-yl)ethyl)amino)benzoic acid]: the pEC50 was 4.82 to 5.70 in assay [1] and 4.82 to 5.70 in assay [2] (Homo sapiens, SK-BR-3, 72 h). Besides, the pIC50 was < 4.82 in assay [3] and < 4.82 in assay [4] (Homo sapiens, SK-BR-3, 6 h).
In the case of `Cc1cc(C(C)Nc2ccccc2C(=O)O)c2cc(N3Cc4cccnc4C3)n(C)c(=O)c2c1` (single isomer, unassigned) [Example 19, 2-((1-(3-(5,7-dihydro-6H-pyrrolo[3,4-b]pyridin-6-yl)-2,7-dimethyl-1-oxo-1,2-dihydroisoquinolin-5-yl)ethyl)amino)benzoic acid], the pEC50 was 6.30 to 9.00 in assay [1] and 4.82 to 5.70 in assay [2] (72 hours). Also, the values for the pIC50 in assay [3] and in assay [4] (6 hours) were 6.30 to 9.00 and < 4.82, respectively.
On to `Cc1cc(C(C)Nc2ccccc2C(=O)O)c2cc(-c3ccc(C)nc3)n(C)c(=O)c2c1` (single isomer, unassigned) [Example 20, 2-((1-(2,7-dimethyl-3-(6-methylpyridin-3-yl)-1-oxo-1,2-dihydroisoquinolin-5-yl)ethyl)amino)benzoic acid], for which the pEC50 in assay [1] was 4.82 to 5.70; in assay [2] (Homo sapiens, SK-BR-3, 72 h), < 4.82. In addition, the pIC50 is < 4.82 in assay [3] and < 4.82 in assay [4] (Homo sapiens, SK-BR-3, 6 h).
`Cc1cc(C(C)Nc2ccccc2C(=O)O)c2cc(-c3ccc(C)nc3)n(C)c(=O)c2c1` (single isomer, unassigned) [Example 21, 2-((1-(2,7-dimethyl-3-(6-methylpyridin-3-yl)-1-oxo-1,2-dihydroisoquinolin-5-yl)ethyl)amino)benzoic acid]: the negative logarithm of the EC50 (pEC50) was 6.30 to 9.00 in assay [1] and < 4.82 in assay [2] (72 hours). Moreover, the pIC50 in assay [3] was 6.30 to 9.00; in assay [4] (6 hours), < 4.82.
As to `Cc1cc(C(C)Nc2ccc(Cl)nc2C(=O)O)c2cc(C3=CCC(C)(C)CC3)n(C)c(=O)c2c1` (single isomer, unassigned) [Example 22, 6-chloro-3-((1-(3-(4,4-dimethylcyclohex-1-en-1-yl)-2,7-dimethyl-1-oxo-1,2-dihydroisoquinolin-5-yl)ethyl)amino)picolinic acid], the pEC50 in assay [1] was 4.82 to 5.70; in assay [2] (Homo sapiens, SK-BR-3, 72 h) it was 4.82 to 5.70. For the same molecule, the pIC50 was 4.82 to 5.70 in assay [3] and < 4.82 in assay [4] (Homo sapiens, SK-BR-3, 6 h).
For `Cc1cc(C(C)Nc2ccccc2C(=O)O)c2cc(N3C[C@H]4CN(CC(F)(F)F)C[C@H]4C3)n(C)c(=O)c2c1` (single isomer, unassigned) [Example 30], the negative logarithm of the EC50 (pEC50) is 4.82 to 5.70 in assay [1] and 4.82 to 5.70 in assay [2] (Homo sapiens, SK-BR-3, 72 h). In addition, the negative-log IC50 (pIC50) in assay [3] was < 4.82; in assay [4] (Homo sapiens, SK-BR-3, 6 h), < 4.82.
Consider `Cc1cc(C(C)Nc2ccccc2C(=O)O)c2cc(N3C[C@H]4CN(CC(F)(F)F)C[C@H]4C3)n(C)c(=O)c2c1` (single isomer, unassigned) [Example 31], for which the negative-log EC50 (pEC50) in assay [1] is 6.30 to 9.00; in assay [2] (72 hours), 4.82 to 5.70. Moreover, the figures for the pIC50 in assay [3] and in assay [4] (6 hours) were 6.30 to 9.00 and < 4.82, respectively.
For the molecule `Cc1cc(C(C)Nc2ccccc2C(=O)O)c2cc(N3CCN(C(=O)CC(C)C)CC3)n(C)c(=O)c2c1` (single isomer, unassigned) [Example 32, 2-((1-(2,7-dimethyl-3-(4-(3-methylbutanoyl)piperazin-1-yl)-1-oxo-1,2-dihydroisoquinolin-5-yl)ethyl)amino)benzoic acid], the pEC50 is < 4.82 in assay [1] and < 4.82 in assay [2] (Homo sapiens, SK-BR-3, 72 h). In addition, the pIC50 in assay [3] was < 4.82; in assay [4] (Homo sapiens, SK-BR-3, 6 h) it was < 4.82.
As to `Cc1cc(C(C)Nc2ccccc2C(=O)O)c2cc(N3CCN(C(=O)CC(C)C)CC3)n(C)c(=O)c2c1` (single isomer, unassigned) [Example 33, 2-((1-(2,7-dimethyl-3-(4-(3-methylbutanoyl)piperazin-1-yl)-1-oxo-1,2-dihydroisoquinolin-5-yl)ethyl)amino)benzoic acid], the pEC50 in assay [1] is 6.30 to 9.00; in assay [2] (72 hours), < 4.82. Moreover, the negative logarithm of the IC50 (pIC50) in assay [3] was 6.30 to 9.00; in assay [4] (6 hours) it was < 4.82.
Turning to `Cc1cc(C(C)Nc2ccccc2C(=O)O)c2cc(C#Cc3ccccc3)n(C)c(=O)c2c1` (single isomer, unassigned) [Example 35, 2-((1-(2,7-dimethyl-1-oxo-3-(phenylethynyl)-1,2-dihydroisoquinolin-5-yl)ethyl)amino)benzoic acid], the pEC50 in assay [1] was < 4.82; in assay [2] (Homo sapiens, SK-BR-3, 72 h), < 4.82. Further, the pIC50 was < 4.82 in assay [3] and < 4.82 in assay [4] (Homo sapiens, SK-BR-3, 6 h).
As for `Cc1cc(C(C)Nc2ccccc2C(=O)O)c2cc(C#Cc3ccccc3)n(C)c(=O)c2c1` (single isomer, unassigned) [Example 36, 2-((1-(2,7-dimethyl-1-oxo-3-(phenylethynyl)-1,2-dihydroisoquinolin-5-yl)ethyl)amino)benzoic acid], the pEC50 in assay [1] was 6.30 to 9.00; in assay [2] (72 hours), < 4.82. Further, the results for the negative logarithm of the IC50 (pIC50) in assay [3] and in assay [4] (6 hours) were 6.30 to 9.00 and < 4.82, respectively.
Regarding `Cc1cc(C(CF)Nc2ccccc2C(=O)O)c2cc(N3CCN(CC(F)(F)F)CC3)n(C)c(=O)c2c1` (single isomer, unassigned) [Example 37, 2-((1-(2,7-dimethyl-1-oxo-3-(4-(2,2,2-trifluoroethyl)piperazin-1-yl)-1,2-dihydroisoquinolin-5-yl)-2-fluoroethyl)amino)benzoic acid], the pEC50 in assay [1] was 4.82 to 5.70; in assay [2] (Homo sapiens, SK-BR-3, 72 h) it was < 4.82. Moreover, the negative logarithm of the IC50 (pIC50) in assay [3] was 4.82 to 5.70; in assay [4] (Homo sapiens, SK-BR-3, 6 h) it was < 4.82.
Take `Cc1cc(C(CF)Nc2ccccc2C(=O)O)c2cc(N3CCN(CC(F)(F)F)CC3)n(C)c(=O)c2c1` (single isomer, unassigned) [Example 38, 2-((1-(2,7-dimethyl-1-oxo-3-(4-(2,2,2-trifluoroethyl)piperazin-1-yl)-1,2-dihydroisoquinolin-5-yl)-2-fluoroethyl)amino)benzoic acid]: the pEC50 is 6.30 to 9.00 in assay [1] and < 4.82 in assay [2] (72 hours). Moreover, the negative logarithm of the IC50 (pIC50) in assay [3] is 6.30 to 9.00; in assay [4] (6 hours), < 4.82.
For `Cc1cc(C(C)Nc2ccccc2C(=O)O)c2cc(N3Cc4ccc(F)cc4C3)n(C)c(=O)c2c1` (single isomer, unassigned) [Example 49], the negative logarithm of the EC50 (pEC50) was 6.30 to 9.00 in assay [1] and < 4.82 in assay [2] (Homo sapiens, SK-BR-3, 72 h). Besides, the pIC50 is 6.30 to 9.00 in assay [3] (Homo sapiens, T47D, 6 h) and < 4.82 in assay [4] (Homo sapiens, SK-BR-3, 6 h).
Turning to `Cc1cc(C(C)Nc2ccccc2C(=O)O)c2cc(N3CC(c4ccccc4)C3)n(C)c(=O)c2c1` (single isomer, unassigned) [Example 76], the pEC50 in assay [1] is < 4.82; in assay [2] (Homo sapiens, SK-BR-3, 72 h) it was < 4.82. Moreover, the pIC50 in assay [3] was < 4.82; in assay [4] (Homo sapiens, SK-BR-3, 6 h), < 4.82.

Source of the values: US20260078103A1, “ISOQUINOLONES AS PI3K INHIBITORS” (OnKure, Inc., priority 2022, published 2026).
